Experimental data from PMC12298391, “Novel Lung Cell-Penetrating Peptide Targets Alveolar Epithelial Type II Cells, Basal Cells, and Ionocytes” (Pharmaceutics, 2025).
Where a SMILES comes first, the peptide text is derived from it. The star is where a group is joined. X1 = CN1C(=CC=CC=CC2=[N+](CCCCCC(=O)*)c3ccc4ccccc4c3C2(C)C)C(C)(C)c2c1ccc1ccccc21

Columns and labels:
[1] = test system: Human bronchial epithelial cells; assay: Confocal microscopy of peptide uptake by HBECs; assay type: cell-based; conditions: 10 μM Cy5.5 peptide, 2, 10 and 30 min, 37 °C
Experimental: Identification and biodistribution of lung-targeting peptides: Eleven “alanine mutant” versions of CTP were synthesized along with the 6 N-terminus CTP-A (APWHLS) and 6 C-terminus CTP-B (SQYSRT), along with CTP peptide as a standard comparison. H9C2 cells, a rat cardiomyoblast cell line, were incubated with 10 μM of the fluorescent peptides, and FACS was performed (Figure 1A). H9C2 cells were chosen because initial phage display studies that led to the identification of CTP were conducted in this cell line, and we had prior evidence of successful transduction of these cells with CTP, which we used as a reference for comparing the alanine mutants. […]. These were injected intravenously in wild-type CD1 mice at a dose of 10 mg/kg. Counter to our expectations, uptake in the heart was negligible. […]; Supplementary Figure S1). […]
Supplemental Figure S2: Human bronchial epithelial cells transduce robustly with LTPs.
Human bronchial epithelial cells were plated on cover slips and treated with 10μM of linear
3x with pre-warmed PBS, fixed, counterstained with DAPI and confocal microscopy
have a cytoplasmic, peri-nuclear localization. Random peptide has very little to no uptake.
(1 picture or pasted object on this page, not shown here)

[2] = mouse, in vivo, iv, 5 mg/kg
Experimental: (§1) Wild-type, 6-week-old, CD1 (Charles Rivers, Wilmington, MA, USA; Cat #022) mice were weighed and anesthetized with an intraperitoneal injection of a 1:1 cocktail of Ketamine–Xylazine at 1–2 μL/gm body weight, followed by intravenous injection with Cy5.5-labeled peptides that were allowed to circulate for various time points. At the end of the circulation times, the mice were euthanized using inhalational CO2, their chest cavity was opened, their right atrium nicked and 3–5 mL of 10% formalin was injected through the left ventricular apex to perfusion-fix the animals. Various organs were harvested, rinsed once in PBS and imaged using an In Vivo Imaging System (IVIS; PerkinElmer Inc., Waltham, MA, USA) with identical instrument settings (stage position, exposure time, binning, F-stop, etc.). The organs were placed in 10% formalin at RT for 4 h, transferred to 15% sucrose at 4 °C overnight, followed by 30% sucrose at 4 °C overnight, before being embedded and cryo-sectioned at 6 μM thickness. The sections were cross-stained with various primary antibodies for ATII cells (ABCA3), basal cells (p63, KRT5), ionocytes (FOXI1), goblet cells (MUC5AC), ATI cells (HOPX), ciliated cells (acetylated tubulin), club cells (Uteroglobin), pulmonary endothelial cells (CD31), and airway smooth muscle cells (α-SMA) overnight at 4 °C. The sections were washed and incubated with Alexa-Fluor-488-conjugated secondary antibody at RT for 1 h. Additionally, kidney sections were stained with Lotus tetragonolobus Lectin-FITC (LTL-FITC) at RT for 1 h. All sections were then washed and mounted with DAPI, and confocal microscopy was performed. All peptides and time points were tested in triplicate (N = 3).

[3] = test system: human Cystic Fibrosis bronchial epithelial cells (CFBE41o-); assay: Transferrin uptake assay, colocalization with endocytosed Alexa-488 transferrin; assay type: cell-based; conditions: confocal; for Uptake by CFBE41o- cells over time: 4 °C, then 5 and 30 min at 37 °C; for Co-localization with endocytosed Alexa-488 transferrin: serum-starved cells, Cy5.5 peptides
Experimental: Endocytosis studies: In order to investigate the mechanism of cell entry, human bronchial epithelial cells (HBECs) were serum-starved overnight and subsequently treated with specific endocytic pathway inhibitors. […] At the end of the incubation period, the cells were washed, trypsinized, harvested, and fixed with 2% PFA for 10 min at room temperature (RT), followed by a single wash and resuspension in PBS, and they were subjected to FACS analysis. […] The cells were washed with cold PBS, incubated with Alexa-488-labeled transferrin on ice in a cold room, and incubated for an hour. At the end of incubation, Cy5.5-labeled random, linear or cyclic LTPs were added and transferred to 37 °C, and after each time point, the cells were washed and fixed in 4% PFA. The cells were stained with Hoechst and mounted for confocal imaging.
Figure 5 Cystic Fibrosis bronchial epithelial cells (CFBE41o-) uptake S7A and R11A without colocalization with endocytosed transferrin. CFBE41o- cells were serum-starved, followed by incubation with transferrin-488, or Cy5.5-labeled linear or cyclic Random, S7A, or R11A, followed by fixation at indicated time points, and confocal microscopy performed. […] (A). Linear peptide colocalization. (B). Cyclic peptide colocalization. (C). Quantification of relative fluorescence of cyclic peptides. ** p < 0.01, *** p < 0.001.

[4] = test system: wild-type CD1 mice; conditions: 15 min, N = 3; for Uptake in the heart: confocal
Experimental: as §1

[5] = test system: SARS-CoV-2 (strain USA_WA1/2020); assay: microbe, parasite or virus in culture; assay type: cell-based; conditions: Severe acute respiratory syndrome coronavirus 2; HBEC inserts, air-liquid interface; treatment apical and basolateral 24 h prior to infection; MOI ~0.0015 CCID50 per cell; virus collected after 5 days, titrated on Vero 76; triplicate; read-out: EC90 (inhibition of viral replication)
[6] = test system: lung cell types of wild-type mice; assay: Confocal microscopy of lung sections of injected mice cross-stained with cell markers; assay type: in vivo, mouse; conditions: 10 mg/kg i.v., 15 min, N = 3
Experimental: Animal studies: All animal protocols were approved by the University of Pittsburgh and the Mayo Clinic’s Institutional Animal Care and Use Committee. Wild-type, 6-week-old, CD1 (Charles Rivers, Wilmington, MA, USA; Cat #022) mice were weighed and anesthetized with an intraperitoneal injection of a 1:1 cocktail of Ketamine–Xylazine at 1–2 μL/gm body weight, followed by intravenous injection with Cy5.5-labeled peptides that were allowed to circulate for various time points. At the end of the circulation times, the mice were euthanized using inhalational CO2, their chest cavity was opened, their right atrium nicked and 3–5 mL of 10% formalin was injected through the left ventricular apex to perfusion-fix the animals. Various organs were harvested, rinsed once in PBS and imaged using an In Vivo Imaging System (IVIS; PerkinElmer Inc., Waltham, MA, USA) with identical instrument settings (stage position, exposure time, binning, F-stop, etc.). The organs were placed in 10% formalin at RT for 4 h, transferred to 15% sucrose at 4 °C overnight, followed by 30% sucrose at 4 °C overnight, before being embedded and cryo-sectioned at 6 μM thickness. […]

[7] = Serum stability in fetal bovine serum, mass spectrometry; assay type: in vitro ADME; conditions: 10 µg/mL, 37 °C/5% CO2, 0-360 min, acetonitrile precipitation, C-peptide internal standard, LC-MS full scan peak area, triplicate
Experimental: At the end of each incubation time point, the tubes were removed and placed on ice; 25 µL of 1 µM C-peptide as an internal standard was added to the tube and vigorously vortexed for 15 s, followed by the addition of 500 μL of acetonitrile to each tube, vortexing for 30 secs, and centrifugation at maximum speed in a tabletop centrifuge for 5 min at 4 °C. The clear supernatant was transferred to a new tube and analyzed using mass spectrophotometry. A full MS scan was performed from 600.0 to 725.0 m/z (mass/charge) without fragmentations in positive polarity at a resolution of 70,000 (the range option is 17,500–140,000). The maximum injection time was 200 msec. The gas flow rates in arbitrary units were as follows: 48 for sheath, 11 for auxiliary, and 3 for sweep. The spray voltage was 4.00 kV, with a spray current of 5.90µA, a capillary temperature of 320 °C, and an auxiliary gas temperature of 250 °C with the S-lens Radio Frequency (RF) set to 50 (arbitrary units from 0 to 100). […] Intensities were quantified as the peak area containing all ion species within the specified m/+2 range. Then, 20 µL of the sample was injected onto an Eclipse Plus C18 column (1.8 um; 2.1 × 50 mm) at 45 °C at a rate of 0.3 mL/min and eluted with a gradient of acetonitrile (in 0.1% formic acid) using water in 0.1% formic acid as the aqueous phase. […]

Compound | Uptake by HBECs (confocal) [1] | tissue to tissue ratio at 0.25 h [2] | Uptake by CFBE41o- cells over time [3] | Co-localization with endocytosed Alexa-488 transferrin [3] | Uptake in the heart ([4]; 10 mg/kg i.v., CD1 mice) | Lung uptake ([4]; 10 mg/kg i.v., CD1 mice, confocal/IVIS) | EC90 [5] [nM] | Lung uptake at lowest dose ([4]; 1 mg/kg i.v., ex vivo IVIS) | Uptake in AT2 and p63+ cells (confocal) compared with cR11A [6] | Uptake in ionocytes, AT-1, club, ciliated, goblet, endothelial and smooth muscle cells (confocal) [6] | Serum stability [7]
TALACYPHTVGQ [RAN, scrambled, random peptide […] used as control, reference compound] | no uptake | – | – | – | – | – | – | – | – | – | –
CC(C)C[C@H](NC(=O)[C@H](Cc1c[nH]cn1)NC(=O)[C@H](Cc1c[nH]c2ccccc12)NC(=O)[C@@H]1CCCN1C(=O)[C@H](C)NC(=O)CCCCC[N+]1=C(C=CC=CC=C2N(C)c3ccc4ccccc4c3C2(C)C)C(C)(C)c2c1ccc1ccccc21)C(=O)N[C@@H](CO)C(=O)N[C@@H](C)C(=O)N[C@@H](CCC(N)=O)C(=O)N[C@@H](Cc1ccc(O)cc1)C(=O)N[C@@H](CO)C(=O)N[C@@H](CCCNC(=N)N)C(=O)N[C@H](C(N)=O)[C@@H](C)O [S7A] (X1-APWHLSAQYSRT-NH2; C-terminus assumed) | taken up at 10 min with uptake increasing at 30 min | ~2.5 | increasing uptake at 5 and 30 min | did not show co-localization | negligible | robust lung uptake | – | – | – | – | –
CCC(CC)COC(=O)[C@H](C)N[P@](=O)(OC[C@H]1O[C@@](C#N)(c2ccc3c(N)ncnn23)[C@H](O)[C@@H]1O)Oc1ccccc1 [Remdesivir] | – | – | – | – | – | – | 19 | – | – | – | –
CC(C)C[C@H](NC(=O)[C@H](Cc1c[nH]cn1)NC(=O)[C@H](Cc1c[nH]c2ccccc12)NC(=O)[C@@H]1CCCN1C(=O)[C@H](C)NC(=O)CCCCC[N+]1=C(C=CC=CC=C2N(C)c3ccc4ccccc4c3C2(C)C)C(C)(C)c2c1ccc1ccccc21)C(=O)N[C@@H](CO)C(=O)N[C@@H](CO)C(=O)N[C@@H](CCC(N)=O)C(=O)N[C@@H](Cc1ccc(O)cc1)C(=O)N[C@@H](CO)C(=O)N[C@@H](C)C(=O)N[C@H](C(N)=O)[C@@H](C)O [R11A] | taken up at 10 min with uptake increasing at 30 min | 8 | increasing uptake at 5 and 30 min | did not show co-localization | negligible | – | – | robust lung uptake | much lesser amounts | no uptake | susceptibility to immediate degradation upon exposure to serum
